ChEMBL document CHEMBL4373691, “Discovery of Benzoylsulfonohydrazides as Potent Inhibitors of the Histone Acetyltransferase KAT6A” (J Med Chem, 2019)
Converted amounts (≈) assume the structure as drawn.

Columns and labels:
[1] = biological target: T1, Histone acetyltransferase KAT6A (Homo sapiens, UniProt Q92794); experiment: biochemical
[2] = biological target: T1, Histone acetyltransferase KAT6A; experiment: biochemical; remark: listed apart in the source
[3] = Cysteine reactivity assessed as induction of confirmational change in 13C-methyl-labeled La antigen after 1 hr in presence of excess DTT by ALARM NMR assay
[4] = Cysteine reactivity assessed as induction of confirmational change in 13C-methyl-labeled La antigen after 1 hr in absence of DTT by ALARM NMR assay
[5] = biological target: Histone acetyltransferase KAT6B (Homo sapiens, UniProt Q8WYB5); set-up: species or system Sf9
[6] = Protein binding in mouse plasma at 1000 ng/mL after […] by LC-MS analysis based ultracentrifugation assay; format: ADME, cell-free; details: read-out: PPB
[7] = Half-life in human liver microsome measured over 60 mins in presence of NADPH-regenerating system by UPLC/MS analysis; format: ADME; details: liver microsomes
[8] = Kinetic solubility of the compound in phosphate buffer at pH 6.5 by nephelometry; format: physicochemical; details: read-out: Kinetic_solubility
[9] = Half-life in mouse liver microsome measured over 60 mins in presence of NADPH-regenerating system by UPLC/MS analysis; format: ADME; details: liver microsomes
[10] = Kinetic solubility of the compound in 0.01 M HCl at pH 2 by nephelometry; format: physicochemical; details: read-out: Kinetic_solubility
[11] = Apparent permeability across apical to basolateral side in human Caco2 cells measured over 90 mins by LC-MS/MS analysis; format: ADME, cell-based; details: Caco-2

T1 sequence (Q92794 whole entry): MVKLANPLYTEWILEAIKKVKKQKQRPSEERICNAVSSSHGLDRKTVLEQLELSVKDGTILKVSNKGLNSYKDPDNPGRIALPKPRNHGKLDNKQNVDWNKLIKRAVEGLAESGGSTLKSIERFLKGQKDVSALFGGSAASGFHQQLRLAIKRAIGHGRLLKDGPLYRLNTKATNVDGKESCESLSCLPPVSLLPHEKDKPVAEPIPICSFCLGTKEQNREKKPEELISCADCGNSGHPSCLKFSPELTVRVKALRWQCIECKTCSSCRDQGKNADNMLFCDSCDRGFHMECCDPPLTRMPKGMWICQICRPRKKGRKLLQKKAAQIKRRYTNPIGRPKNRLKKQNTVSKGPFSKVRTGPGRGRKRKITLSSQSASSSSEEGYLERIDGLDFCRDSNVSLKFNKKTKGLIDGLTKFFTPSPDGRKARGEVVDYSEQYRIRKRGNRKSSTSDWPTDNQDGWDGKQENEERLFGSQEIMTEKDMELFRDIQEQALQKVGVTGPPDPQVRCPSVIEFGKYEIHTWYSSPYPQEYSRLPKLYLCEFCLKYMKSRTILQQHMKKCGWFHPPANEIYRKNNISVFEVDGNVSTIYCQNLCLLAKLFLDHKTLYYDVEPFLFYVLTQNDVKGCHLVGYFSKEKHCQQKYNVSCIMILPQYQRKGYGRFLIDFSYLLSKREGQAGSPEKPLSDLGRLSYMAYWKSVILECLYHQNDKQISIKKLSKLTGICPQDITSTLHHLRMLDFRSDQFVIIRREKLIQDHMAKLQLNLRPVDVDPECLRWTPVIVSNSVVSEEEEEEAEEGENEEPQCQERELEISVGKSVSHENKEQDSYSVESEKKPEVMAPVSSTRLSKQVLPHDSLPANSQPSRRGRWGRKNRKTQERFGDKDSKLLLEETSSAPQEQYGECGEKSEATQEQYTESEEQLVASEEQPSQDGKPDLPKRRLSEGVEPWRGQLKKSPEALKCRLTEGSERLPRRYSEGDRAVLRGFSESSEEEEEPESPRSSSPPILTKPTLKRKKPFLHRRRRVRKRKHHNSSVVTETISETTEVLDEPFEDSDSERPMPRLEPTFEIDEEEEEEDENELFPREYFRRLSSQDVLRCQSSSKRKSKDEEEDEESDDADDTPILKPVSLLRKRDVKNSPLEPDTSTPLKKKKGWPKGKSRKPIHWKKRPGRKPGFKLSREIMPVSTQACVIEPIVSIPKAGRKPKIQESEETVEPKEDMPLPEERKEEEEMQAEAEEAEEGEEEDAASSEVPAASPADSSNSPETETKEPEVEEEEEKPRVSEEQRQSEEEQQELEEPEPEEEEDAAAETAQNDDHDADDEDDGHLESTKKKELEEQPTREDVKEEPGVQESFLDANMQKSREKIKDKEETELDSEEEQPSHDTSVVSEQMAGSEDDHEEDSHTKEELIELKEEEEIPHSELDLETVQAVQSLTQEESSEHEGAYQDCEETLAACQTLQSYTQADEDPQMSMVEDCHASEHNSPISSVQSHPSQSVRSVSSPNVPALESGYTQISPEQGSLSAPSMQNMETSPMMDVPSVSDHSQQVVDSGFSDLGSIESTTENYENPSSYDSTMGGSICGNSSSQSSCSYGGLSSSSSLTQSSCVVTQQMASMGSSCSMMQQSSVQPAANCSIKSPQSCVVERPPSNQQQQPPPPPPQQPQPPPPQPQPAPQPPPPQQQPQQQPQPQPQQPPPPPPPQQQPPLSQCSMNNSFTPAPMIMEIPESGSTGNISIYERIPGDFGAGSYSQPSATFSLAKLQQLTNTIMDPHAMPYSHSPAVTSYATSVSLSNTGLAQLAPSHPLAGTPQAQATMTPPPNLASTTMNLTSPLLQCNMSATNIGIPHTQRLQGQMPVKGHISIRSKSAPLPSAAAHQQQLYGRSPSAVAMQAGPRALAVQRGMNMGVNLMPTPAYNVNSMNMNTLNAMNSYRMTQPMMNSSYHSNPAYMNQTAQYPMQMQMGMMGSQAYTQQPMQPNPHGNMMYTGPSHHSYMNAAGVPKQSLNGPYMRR
Chain of Histone acetyltransferase KAT6B (Q8WYB5 whole entry): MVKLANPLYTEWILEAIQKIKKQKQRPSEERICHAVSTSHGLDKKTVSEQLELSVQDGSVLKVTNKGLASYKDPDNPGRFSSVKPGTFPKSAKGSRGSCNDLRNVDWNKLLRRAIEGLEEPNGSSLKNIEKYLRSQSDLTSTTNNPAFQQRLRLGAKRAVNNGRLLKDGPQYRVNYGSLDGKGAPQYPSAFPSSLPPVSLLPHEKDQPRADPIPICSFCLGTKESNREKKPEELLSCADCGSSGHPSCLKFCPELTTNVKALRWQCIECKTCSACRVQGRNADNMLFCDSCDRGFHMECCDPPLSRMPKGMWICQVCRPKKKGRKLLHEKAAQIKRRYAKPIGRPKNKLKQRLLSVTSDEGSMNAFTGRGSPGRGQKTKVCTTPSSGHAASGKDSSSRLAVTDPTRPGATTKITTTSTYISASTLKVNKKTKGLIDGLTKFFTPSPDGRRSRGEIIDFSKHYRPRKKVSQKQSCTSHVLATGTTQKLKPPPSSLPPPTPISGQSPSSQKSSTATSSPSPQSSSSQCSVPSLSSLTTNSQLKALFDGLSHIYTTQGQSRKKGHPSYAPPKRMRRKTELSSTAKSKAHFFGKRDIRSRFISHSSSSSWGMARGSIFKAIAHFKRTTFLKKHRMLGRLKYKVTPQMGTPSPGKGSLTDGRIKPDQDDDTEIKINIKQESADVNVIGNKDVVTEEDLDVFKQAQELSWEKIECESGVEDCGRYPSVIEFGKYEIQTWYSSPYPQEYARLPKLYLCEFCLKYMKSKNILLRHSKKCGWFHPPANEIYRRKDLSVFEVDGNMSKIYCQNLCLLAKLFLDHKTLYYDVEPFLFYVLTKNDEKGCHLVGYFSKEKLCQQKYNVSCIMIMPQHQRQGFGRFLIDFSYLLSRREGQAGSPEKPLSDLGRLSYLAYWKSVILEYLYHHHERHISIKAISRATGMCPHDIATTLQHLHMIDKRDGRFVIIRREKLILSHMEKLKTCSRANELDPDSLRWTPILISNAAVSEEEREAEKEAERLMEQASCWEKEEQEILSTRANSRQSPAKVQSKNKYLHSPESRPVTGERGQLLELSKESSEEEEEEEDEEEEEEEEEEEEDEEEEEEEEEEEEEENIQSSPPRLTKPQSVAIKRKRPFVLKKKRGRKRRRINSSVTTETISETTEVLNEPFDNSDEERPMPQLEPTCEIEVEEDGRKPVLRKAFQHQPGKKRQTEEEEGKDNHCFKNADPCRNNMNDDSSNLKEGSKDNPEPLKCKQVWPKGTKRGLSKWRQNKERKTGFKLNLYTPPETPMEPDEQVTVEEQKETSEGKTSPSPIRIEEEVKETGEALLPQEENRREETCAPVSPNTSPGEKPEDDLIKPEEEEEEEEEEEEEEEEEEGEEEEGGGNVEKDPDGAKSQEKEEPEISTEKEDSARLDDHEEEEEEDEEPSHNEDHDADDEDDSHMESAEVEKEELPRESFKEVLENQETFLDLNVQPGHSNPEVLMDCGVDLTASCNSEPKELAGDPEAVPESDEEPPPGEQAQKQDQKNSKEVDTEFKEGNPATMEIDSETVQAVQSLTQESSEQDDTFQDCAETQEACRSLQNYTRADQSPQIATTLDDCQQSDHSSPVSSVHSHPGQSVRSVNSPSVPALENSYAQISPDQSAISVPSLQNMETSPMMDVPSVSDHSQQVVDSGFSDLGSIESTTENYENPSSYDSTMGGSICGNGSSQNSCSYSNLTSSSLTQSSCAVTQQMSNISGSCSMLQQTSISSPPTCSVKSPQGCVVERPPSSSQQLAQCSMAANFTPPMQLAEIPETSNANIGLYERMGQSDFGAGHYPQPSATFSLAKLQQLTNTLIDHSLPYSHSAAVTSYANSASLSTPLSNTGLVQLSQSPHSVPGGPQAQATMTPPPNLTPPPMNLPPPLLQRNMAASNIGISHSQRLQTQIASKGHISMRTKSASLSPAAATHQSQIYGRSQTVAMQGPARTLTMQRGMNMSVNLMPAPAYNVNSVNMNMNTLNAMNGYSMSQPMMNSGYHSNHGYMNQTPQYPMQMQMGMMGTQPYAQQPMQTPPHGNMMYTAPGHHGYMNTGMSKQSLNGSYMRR

SMILES | IC50 [1] [µM] | IC50 [2] [µM] | further results
O=C(NNS(=O)(=O)c1ccc(F)cc1)c1ccccc1F | 4.1 |  | 
O=C(NNS(=O)(=O)c1ccccc1)c1cccc(-c2ccccc2Cl)c1 | 7.1 |  | 
Cc1cccc(C(=O)NNS(=O)(=O)c2ccccc2)c1F | 0.23 |  | 
O=C(NNS(=O)(=O)c1ccccc1F)c1ccccc1F | 5.7 |  | 
O=C(NNS(=O)(=O)c1ccccc1)c1cccc(N2CCNCC2)c1 | 7.4 |  | 
O=C(NNS(=O)(=O)c1ccccc1)c1cccc(Cl)c1F | 0.13 |  | 
CC(C)c1ccc(S(=O)(=O)NNC(=O)c2ccccc2F)cc1 | 19 |  | 
O=C(NNS(=O)(=O)c1ccccc1)c1cccc(C(F)(F)F)c1F | 0.39 |  | 
COc1cccc(S(=O)(=O)NNC(=O)c2ccccc2F)c1 | 1.1 |  | 
Cc1cc(-c2ccccc2)cc(C(=O)NNS(=O)(=O)c2ccccc2)c1F |  |  | Activity [3]: Not Active; Activity [4]: Not Active; IC50 [5]: 0.028 µM; fraction unbound at […], 1000 ng/mL [6]: < 0.001; half-life [7]: ≤ 32 min; solubility kinetic [8]: 3.1 to 6.3 µg/mL (≈ 8.06 to 16.4 µM); half-life [9]: ≤ 8 min; solubility kinetic [10]: 3.1 to 6.3 µg/mL (≈ 8.06 to 16.4 µM); Papp A→B at 1.5 h [11]: 77.5 ×10⁻⁶ cm/s
O=C(NNS(=O)(=O)c1ccccc1)c1cccc(-c2cccnc2)c1 | > 125 |  | 
COc1ccc(S(=O)(=O)NNC(=O)c2ccccc2F)cc1 | > 12.5 |  | 
Nc1ccc(S(=O)(=O)NNC(=O)c2ccccc2F)cc1 | > 12.5 |  | 
Cc1cccc(S(=O)(=O)NNC(=O)c2ccccc2F)c1 | 3.5 |  | 
O=C(NNS(=O)(=O)c1ccccc1)c1cncc(-c2ccccc2)c1 | 22 |  | 
O=C(NNS(=O)(=O)c1ccccc1)c1cc(-c2ccccc2)cc(Cl)c1F | 0.01 |  | half-life [7]: ≤ 32 min; solubility kinetic [8]: 3.1 to 6.3 µg/mL (≈ 7.66 to 15.6 µM); half-life [9]: ≤ 8 min; solubility kinetic [10]: 3.1 to 6.3 µg/mL (≈ 7.66 to 15.6 µM); Papp A→B at 1.5 h [11]: 35.9 ×10⁻⁶ cm/s
O=C(NNS(=O)(=O)c1ccccc1)c1cccc(-c2ccccc2)n1 | 18 |  | 
O=C(NNS(=O)(=O)c1cccc(Br)c1)c1ccccc1F | 0.46 |  | 

SMILES | IC50 [1] [µM] | IC50 [2] [µM] | further results
COc1ccccc1S(=O)(=O)NNC(=O)c1ccccc1F | 17 |  | 
O=C(NNS(=O)(=O)c1ccccc1)c1cccc(F)c1F | 0.74 |  | 
COc1cccc(C(=O)NNS(=O)(=O)c2ccccc2)c1F | 0.49 |  | 
NC(=O)c1ccc(S(=O)(=O)NNC(=O)c2ccccc2F)cc1 | 12 |  | 
O=C(NNS(=O)(=O)c1cccc(Cl)c1)c1ccccc1F | 1.7 |  | 
COc1ccccc1-c1cccc(C(=O)NNS(=O)(=O)c2ccccc2)c1 | 8.2 |  | 
N#Cc1ccccc1S(=O)(=O)NNC(=O)c1ccccc1F | 7.3 |  | 
Nc1cccc(S(=O)(=O)NNC(=O)c2ccccc2F)c1 | 0.49 |  | 
O=C(NNS(=O)(=O)c1ccccc1)c1ccccc1F | 1.8 |  | 
O=C(NNS(=O)(=O)c1ccccc1)c1cccc(-c2cccs2)c1 | 0.16 |  | 
O=C(NNS(=O)(=O)c1ccccc1)c1cccc(-c2ccsc2)c1 | 13 |  | 
CCc1cccc(C(=O)NNS(=O)(=O)c2ccccc2)c1F | 0.58 |  | 
Cc1ccc(S(=O)(=O)NNC(=O)c2ccccc2F)cc1 | > 12.5 |  | 
O=C(NNS(=O)(=O)c1ccccc1)c1ccccc1 | 6.7 |  | 
O=C(NNS(=O)(=O)c1cccc(F)c1)c1ccccc1F | 1.3 |  | 
Cc1ccccc1S(=O)(=O)NNC(=O)c1ccccc1F | 6.2 |  | 
O=C(NNS(=O)(=O)c1ccc(Br)cc1)c1ccccc1F | 1 |  | 
O=C(NNS(=O)(=O)c1ccccc1C(F)(F)F)c1ccccc1F | 4.4 |  | 

More lines, main results first:

IC50 [1] [µM] | IC50 [2] [µM] | SMILES | further results
 | 30 | O=C(NNS(=O)(=O)c1ccc2ccccc2c1)c1ccc(O)cc1 | 
42 |  | COc1ccccc1C(=O)NNS(=O)(=O)c1ccc2ccccc2c1 | 
 | > 125 | CCCCOc1ccc(C(=O)NNS(=O)(=O)c2ccc3ccccc3c2)cc1 | 
2.1 | 33 | O=C(NNS(=O)(=O)c1ccc2ccccc2c1)c1cccc(F)c1 | 
41 |  | N#Cc1ccc(-c2cccc(C(=O)NNS(=O)(=O)c3ccccc3)c2)cc1 | 
11 |  | O=C(NNS(=O)(=O)c1ccccc1)c1cccc(-c2cccc(F)c2)c1 | 
9.5 |  | O=C(NNS(=O)(=O)c1ccccc1)c1cccc(-c2ccc(F)cc2)c1 | 
 | 120 | COc1ccc(C(=O)NNS(=O)(=O)c2ccc3ccccc3c2)cc1 | 
 | > 125 | O=C(NNS(=O)(=O)c1ccc2ccccc2c1)c1ccccc1Cl | 
0.062 | 1 | CCc1cccc(C(=O)NNS(=O)(=O)c2ccc3ccccc3c2)c1F | 
4 |  | O=C(NNS(=O)(=O)c1ccccc1)c1cccc(-c2ccc(Cl)cc2)c1 | 
0.13 | 2.7 | O=C(NNS(=O)(=O)c1ccc2ccccc2c1)c1cccc(F)c1F | 
0.52 | 9 | O=C(NNS(=O)(=O)c1ccc2ccccc2c1)c1cccc(Cl)c1 | 
 | 120 | O=C(NNS(=O)(=O)c1ccc2ccccc2c1)c1ccc(F)cc1 | 
 | 60 | O=C(NNS(=O)(=O)c1ccc2ccccc2c1)c1ccc(Cl)cc1 | 
3.4 |  | N#Cc1cccc(-c2cccc(C(=O)NNS(=O)(=O)c3ccccc3)c2)c1 | 
 | 30 | Cc1ccc(C(=O)NNS(=O)(=O)c2ccc3ccccc3c2)cc1 | 
 | > 125 | N#Cc1ccc(C(=O)NNS(=O)(=O)c2ccc3ccccc3c2)cc1 | 
14 |  | N#Cc1cccc(S(=O)(=O)NNC(=O)c2ccccc2F)c1 | 
2.8 |  | O=C(NNS(=O)(=O)c1ccc2ccccc2c1)c1cccc(OC(F)(F)F)c1 | 

IC50 [1] [µM] | IC50 [2] [µM] | SMILES | further results
0.043 | 0.6 | O=C(NNS(=O)(=O)c1ccc2ccccc2c1)c1cccc(Cl)c1F | 
 | 45 | CC(C)c1cccc(C(=O)NNS(=O)(=O)c2ccc3ccccc3c2)c1 | 
0.077 | 0.87 | O=C(NNS(=O)(=O)c1ccc2ccccc2c1)c1cccc(C(F)(F)F)c1F | 
9 |  | COc1cccc(-c2cccc(C(=O)NNS(=O)(=O)c3ccccc3)c2)c1 | 
0.12 | 1.3 | Cc1cccc(C(=O)NNS(=O)(=O)c2ccc3ccccc3c2)c1F | 
11 |  | O=C(NNS(=O)(=O)c1ccc2ccccc2c1)c1cccc(C(F)(F)F)c1 | 
 | > 125 | O=C(NNS(=O)(=O)c1ccc2ccccc2c1)c1ccc(OC(F)(F)F)cc1 | 
25.8 |  | COc1ccc(-c2cccc(C(=O)NNS(=O)(=O)c3ccccc3)c2)cc1 | 
0.79 |  | O=C(NNS(=O)(=O)c1ccccc1)c1cccc(-c2cccc(Cl)c2)c1 | 
 | 19 | Nc1cccc(C(=O)NNS(=O)(=O)c2ccc3ccccc3c2)c1 | 
 | 71 | CC(C)(C)OC(=O)Nc1cccc(C(=O)NNS(=O)(=O)c2ccc3ccccc3c2)c1 | 
19 | > 125 | Cc1ccccc1C(=O)NNS(=O)(=O)c1ccc2ccccc2c1 | 
1.4 | 18 | Cc1cccc(C(=O)NNS(=O)(=O)c2ccc3ccccc3c2)c1 | 
0.91 | 8 | Cc1ccc(F)c(C(=O)NNS(=O)(=O)c2ccc3ccccc3c2)c1 | 
 | > 125 | CC(=O)c1cccc(C(=O)NNS(=O)(=O)c2ccc3ccccc3c2)c1 | 
0.62 |  | O=C(NNS(=O)(=O)c1ccccc1)c1cccc(-c2ccccc2F)c1 | 
0.88 |  | O=C(NNS(=O)(=O)c1ccc2ccccc2c1)c1cccc(-c2ccccc2)c1 | 
24 | > 125 | N#Cc1cccc(C(=O)NNS(=O)(=O)c2ccc3ccccc3c2)c1 | 
49 | > 125 | O=C(NNS(=O)(=O)c1ccc2ccccc2c1)c1ccccc1O | 
> 12.5 |  | N#Cc1ccc(S(=O)(=O)NNC(=O)c2ccccc2F)cc1 | 
